Laboratory results taken from patent publication US6475746B1, “Method of obtaining a composition comprising a 5-HT1D selective compound” (Synaptic Pharmaceutical Corporation, priority 1990, dated 2002).
Where two headings read alike, the source gives them in different places.

Tests used:
[1] = target: Cloned Human 5-HT1D-1 (Homo sapiens, UniProt P28221); assay: [3H]5-HT binding to cloned human 5-HT1D-1 (gene 8-30-84) in transfected cell membranes
[2] = target: Cloned Human 5-HT1D-2 (Homo sapiens, UniProt P28222); assay: [3H]5-HT binding to cloned human 5-HT1D-2 (gene 11) in transfected cell membranes
Sequence of Cloned Human 5-HT1D-2 (P28222 whole entry): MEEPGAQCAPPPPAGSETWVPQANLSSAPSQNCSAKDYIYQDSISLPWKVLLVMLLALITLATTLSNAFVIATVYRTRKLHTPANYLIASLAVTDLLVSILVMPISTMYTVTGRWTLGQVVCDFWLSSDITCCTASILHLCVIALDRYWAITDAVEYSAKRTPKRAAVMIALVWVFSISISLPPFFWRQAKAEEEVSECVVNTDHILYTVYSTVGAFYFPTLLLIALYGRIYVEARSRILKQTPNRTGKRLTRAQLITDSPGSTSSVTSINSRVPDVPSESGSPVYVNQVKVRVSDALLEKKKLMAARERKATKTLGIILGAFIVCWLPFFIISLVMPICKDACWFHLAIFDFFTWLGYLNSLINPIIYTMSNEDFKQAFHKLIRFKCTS

[3] = target: Cloned Canine 5-HT1D-1 (RDC4) (Canis lupus familiaris, UniProt P11614); assay: [3H]5-HT binding to cloned canine 5-HT1D-1 (RDC4) in transfected cell membranes
Sequence of Cloned Canine 5-HT1D-1 (RDC4) (P11614 whole entry): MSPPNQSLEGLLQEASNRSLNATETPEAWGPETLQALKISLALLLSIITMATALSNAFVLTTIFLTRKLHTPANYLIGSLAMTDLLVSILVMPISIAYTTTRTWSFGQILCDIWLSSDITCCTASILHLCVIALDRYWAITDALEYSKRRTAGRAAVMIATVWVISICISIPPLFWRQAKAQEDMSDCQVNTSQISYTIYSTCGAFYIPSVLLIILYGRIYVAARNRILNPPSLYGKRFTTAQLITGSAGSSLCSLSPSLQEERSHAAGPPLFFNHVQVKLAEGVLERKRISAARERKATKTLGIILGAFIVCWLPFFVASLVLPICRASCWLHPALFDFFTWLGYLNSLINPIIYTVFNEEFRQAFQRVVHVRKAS

[4] = target: Human Native Membranes 5-HT1D; details: literature values (footnotes a, b, c), read-out: Estimated equilibrium dissociation constants (Ki values); cited from earlier work
[5] = target: T1, cloned rat 5-HT1B receptor (Rattus norvegicus, UniProt P28564); type: binding
T1 construct: expressed in transfected cells; host or cells: Cos-7 cells, transient; membrane fraction
T1 sequence (P28564 whole entry): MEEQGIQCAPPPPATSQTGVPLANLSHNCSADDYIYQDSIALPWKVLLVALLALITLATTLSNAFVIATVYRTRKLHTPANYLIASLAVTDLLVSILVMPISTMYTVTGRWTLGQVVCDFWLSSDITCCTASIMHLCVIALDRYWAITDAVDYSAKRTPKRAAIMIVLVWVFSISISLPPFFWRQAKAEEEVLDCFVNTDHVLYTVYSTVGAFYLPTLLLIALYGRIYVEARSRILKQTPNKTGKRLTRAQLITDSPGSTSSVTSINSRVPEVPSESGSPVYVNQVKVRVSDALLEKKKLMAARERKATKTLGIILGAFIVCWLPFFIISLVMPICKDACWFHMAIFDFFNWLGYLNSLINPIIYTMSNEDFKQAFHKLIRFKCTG
Protocol: To islolate the putative rat homolog of the 5-HT1D gone, a rat library was screened at high stringency using a human 5-HT1D sequence as a probe. […] To identify the pharmacological profile of this receptor, radioligand binding assays were performed on a membrane fraction derived from the transfected cells.

[6] = test system: human 5-HT1D clone; assay: Radioligand binding to human 5-HT1D clone (comparison with rat clone)
[7] = read-out: Estimated equilibrium dissociation constants (Ki values), [3H]5-HT displacement, membranes of LM (tk−) cells stably transfected, Cheng-Prusoff

Sequence of Cloned Human 5-HT1D-1 (P28221 whole entry): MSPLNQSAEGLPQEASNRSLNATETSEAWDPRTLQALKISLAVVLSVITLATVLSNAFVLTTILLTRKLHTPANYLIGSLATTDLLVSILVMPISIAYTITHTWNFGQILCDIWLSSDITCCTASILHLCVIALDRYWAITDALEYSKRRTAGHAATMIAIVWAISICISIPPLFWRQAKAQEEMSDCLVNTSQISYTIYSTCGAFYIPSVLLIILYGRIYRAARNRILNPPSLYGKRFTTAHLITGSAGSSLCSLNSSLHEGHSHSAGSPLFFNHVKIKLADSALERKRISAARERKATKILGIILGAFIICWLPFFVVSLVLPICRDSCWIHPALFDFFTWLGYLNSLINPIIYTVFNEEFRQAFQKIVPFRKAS

c1ccc2c(N3CCNCC3)cccc2c1 [1-Napthylpiperazine]
Ki [1, 7]: 7.4 ± 0.6 nM | Ki [2, 7]: 12 ± 2 nM

Cc1[nH]c2ccc(O)cc2c1CCN [2-methyl-5-HT]
Ki [1, 7]: 915 ± 68 nM | Ki [3, 7]: 444 ± 30 nM | Ki [2, 7]: 860 ± 109 nM | Ki [4]: 1700 nM

NCCc1c[nH]c2ccc(OCc3ccccc3)cc12 [5-Benzoxyltryptamine]
Ki [1, 7]: 9.6 ± 3 nM | Ki [2, 7]: 19 ± 8 nM

NCCc1c[nH]c2ccc(C(N)=O)cc12 [5-Carboxamidotryptamine]
affinity for the binding site ([3]; RDC4-transfected cells): high affinity | Ki [3, 7]: 0.92 ± 0.06 nM

NCCc1c[nH]c2ccc(O)cc12 [5-Hydrozytryptamine]
Ki [3, 7]: 5 ± 1.4 nM | Ki [4]: 6.5 nM

COc1ccc2[nH]cc(CCN)c2c1 [5-Methoxytryptamine]
Ki [4]: 6.2 nM

COc1ccc2[nH]cc(CCN(C)C)c2c1 [5-methoxy-DMT]
Ki [3, 7]: 5.1 ± 1.7 nM

Oc1ccc2c(CCC3CCNCC3)c[nH]c2c1 [6-OH-indalpine]
ability to compete for 3H-5-HT binding sites ([3]; RDC4-transfected cells): unable to compete

COc1cc(CC(C)N)c(OC)cc1I (stereo not shown) [DOI]
Ki [1, 7]: 714 ± 81 nM | Ki [3, 7]: 729 ± 102 nM | Ki [2, 7]: 1670 ± 451 nM | Ki [4]: 670 nM

CCCN(CCC)C1CCc2cccc(O)c2C1 (stereo not shown) [DPAT]
Ki [3, 7]: 86 ± 21 nM | Ki [4]: 340 nM

CCCN(CCC)CCc1c[nH]c2ccc(C(N)=O)cc12 [Dipropyl-5-CT, dipropyl-5-carboxyamidotryptamine]
activity at the rat receptor [5]: essentially inactive | Ki [1, 7]: 13 ± 1 nM | Ki [2, 7]: 42 ± 4 nM

CN1C[C@H](C(=O)N[C@]2(C)O[C@@]3(O)[C@@H]4CCCN4C(=O)[C@H](Cc4ccccc4)N3C2=O)C=C2c3cccc4[nH]cc(c34)C[C@H]21 [Ergotamine]
Ki [3]: 1.9 ± 0.3 nM | Ki [4]: 0.3 nM

CN1[C@@H]2CC[C@H]1C[C@@H](OC(=O)c1c[nH]c3ccccc13)C2 [ICS 205-930]
ability to compete for 3H-5-HT binding sites ([3]; RDC4-transfected cells): unable to compete

O=C(c1ccc(F)cc1)C1CCN(CCn2c(=O)[nH]c3ccccc3c2=O)CC1 [Ketanserin]
Ki [1]: 73 ± 12 nM | Ki [3]: > 1000 nM | ability to compete for 3H-5-HT binding sites ([3]; RDC4-transfected cells): unable to compete | Ki [2]: 5200 ± 524 nM | Ki [4]: > 10000 nM

CN1C[C@H](CO)C=C2c3cccc4[nH]cc(c34)C[C@H]21 [Lysergol]
Ki [1, 7]: 0.63 ± 0.1 nM | Ki [2, 7]: 1.2 ± 0.1 nM

CN1C[C@H](CNC(=O)OCc2ccccc2)C[C@@H]2c3cccc4c3c(cn4C)C[C@H]21 [Metergoline]
Ki [1]: 5.8 ± 1.1 nM | Ki [2]: 18 ± 3 nM | Ki [4]: 12 nM

CSc1ccc2c(c1)C(N1CCN(C)CC1)Cc1ccccc1S2 (stereo not shown) [Methiothepin]
Ki [1, 7]: 11 ± 2 nM | Ki [2, 7]: 25 ± 7 nM | Ki [4]: 17 nM

CC[C@@H](CO)NC(=O)[C@@H]1C=C2c3cccc4[nH]cc(c34)C[C@H]2N(C)C1 [Methylergonovine]
Ki [1]: 0.86 ± 0.36 nM | Ki [2]: 2.9 ± 1.5 nM

CC[C@@H](CO)NC(=O)[C@@H]1C=C2c3cccc4c3c(cn4C)C[C@H]2N(C)C1 [Methysergide]
Ki [1, 7]: 3.6 ± 0.6 nM | Ki [3, 7]: 7.7 ± 1.7 nM | Ki [2, 7]: 25 ± 5 nM

COc1ccccc1N1CCN(CCCCN2C(=O)c3ccccc3C2=O)CC1 [NAN-190]
Ki [1]: 194 ± 12 nM | Ki [2]: 652 ± 48 nM

Nc1ccc(CCN2CCN(c3cccc(C(F)(F)F)c3)CC2)cc1 [PAPP]
Ki [1, 7]: 3.1 ± 0.2 nM | Ki [3, 7]: 35 ± 6 nM | Ki [2, 7]: 10 ± 1 nM

Cc1ccc(N(CC2=NCCN2)c2cccc(O)c2)cc1 [Phentolamine]
Ki [1]: 775 ± 72 nM | Ki [2]: 2150 ± 685 nM

CC(C)NCC(O)COc1cccc2[nH]ccc12 (stereo not shown) [Pindolol]
Ki [1]: 4110 ± 504 nM | Ki [3]: > 1000 nM | effect of co-incubation on high affinity 3H-5-HT binding ([3]; RDC4-transfected cells, 1 μm): not affected | effect of masking ligand on specific binding or pharmacological profile ([3]; transfected Cos-7 cells, RDC4, masking ligand 1 μM): no significant effect | Ki [2]: 4880 ± 302 nM | effect of masking ligand on specific binding or pharmacological profile ([2]; transfected Cos-7 cells, peptide 11, masking ligand 1 μM): no significant effect | Ki [4]: > 10000 nM

COC(=O)[C@H]1[C@H]2C[C@H]3c4[nH]c5ccccc5c4CCN3C[C@H]2CC[C@@H]1O [Rauwolscine]
Ki [1]: 16 ± 2 nM | Ki [3]: 5.3 ± 2.9 nM

Cc1nc2sccn2c(=O)c1CCN1CCC(=C(c2ccc(F)cc2)c2ccc(F)cc2)CC1 [Ritanserin]
Ki [1]: 54 ± 10 nM | Ki [2]: 1200 ± 115 nM | Ki [4]: 3600 nM

CN1CCc2cc(Cl)c(O)cc2[C@@H](c2ccccc2)C1 [SCH-23390]
Ki [1]: 676 ± 69 nM | Ki [2]: 1210 ± 626 nM

O=C(CCCN1CCC2(CC1)C(=O)NCN2c1ccccc1)c1ccc(F)cc1 [Spiperone]
Ki [1, 7]: 995 ± 96 nM | Ki [3]: > 1000 nM | Ki [2]: > 10000 nM

CNS(=O)(=O)Cc1ccc2[nH]cc(CCN(C)C)c2c1 [Sumatriptan]
affinity ([1]; refers to Table 1): extremely high affinity

FC(F)(F)c1cccc(N2CCNCC2)c1 [TFMPP]
Ki [3, 7]: 112 ± 14 nM | Ki [4]: 210 nM

NCCc1c[nH]c2ccccc12 [Tryptamine]
Ki [3, 7]: 343 ± 15 nM | Ki [4]: 46 nM

COC(=O)[C@@H]1[C@H]2C[C@H]3c4[nH]c5ccccc5c4CCN3C[C@@H]2CC[C@@H]1O [Yohimbine]
Ki [1, 7]: 22 ± 2 nM | Ki [3, 7]: 32 ± 6 nM | Ki [4]: 42 nM

COc1cc(N)c(Cl)cc1C(=O)NC1CN2CCC1CC2 (stereo not shown) [Zacopride]
Ki [1]: > 10000 nM | Ki [3]: > 10000 nM | Ki [2]: > 10000 nM

CC(C)(C)NCC(O)COc1cccc2[nH]c(C#N)c(I)c12 (stereo not shown) [[^125I]iodocyanopindolol]
Kd ([5]; Cos-7 membranes, in the presence of 3 μM isoproterenol, read-out: Kd of [125I]iodocyanopindolol): 0.16 nM

CC(C)(C)NCC(O)COc1cccc2[nH]c(C#N)c([125I])c12 (stereo not shown) [[^125I]iodocyanopindolol]
specific binding of [125I]I-CYP ([6]; at 1 nM): no specific binding detected

Clc1cccc(N2CCNCC2)c1 [mCPP]
Ki [1, 7]: 216 ± 20 nM | Ki [3, 7]: 329 ± 80 nM | Ki [2, 7]: 361 ± 31 nM | Ki [4]: 1200 nM

Corynanthine
Ki [4]: > 10000 nM

^3H-5-HT
Kd ([6]; read-out: Kd of [3H]5-HT): 4 nM | Kd ([3]; read-out: KD of radioligand (apparent high affinity), RDC4-transfected Cos-7 and Ltk- cells): ~3 nM | Kd ([3]; read-out: Kd of radioligand, Ltk- cells transfected with RDC4): 3.6 nM | Kd ([3]; read-out: affinity of radioligand binding, transiently transfected Cos-7 cells, RDC4): 3 nM
